Source: patent US20100303916A1, “ENHANCED DRUG DELIVERY WITH ORIENTABLE PARTICLES” (THE GOVERNORS OF THE UNIVERSITY OF ALBERTA, priority 2007, published 2010)

Assay: Aerosol particle size distribution and number concentration by SEM
Assay type: physicochemical
Conditions: mean ± SD, n = 9 SEM images
Procedure: The particle size distribution and number concentration of the CA and CA/magnetite aerosols were determined from samples taken from the delivery apparatus used for the aerosol deposition experiments. Suspensions of CA and CA/magnetite were nebulized, and drawn by vacuum pump along with ambient, drying air at 10 l/min. into a large volume (˜16 1) delivery chamber for 1.5 minutes. With reference to FIG. 5, after filling the delivery chamber 40 with aerosol, valves 46, 48 connecting to the nebulizer 42 and the vacuum pump 44, respectively, were closed, and a butterfly valve 50 at the base 52 of the chamber 40 was opened. Aerosol was then sampled from the base 52 of the chamber 40 onto a 0.2 μm pore polycarbonate membrane (Isopore GTTP04700; Millipore, Billerica, Mass., not shown) for 1 hour at a flow rate of 0.21 l/min., maintained through the delivery chamber using dry, compressed air and a needle valve, and monitored using a low flow rate rotameter (FL-2010; OMEGA Canada, Laval, QC). Over the period of the sampling, the needle valve was adjusted as required to hold the flow rate to within 0.21±0.02 l/min.
After collecting aerosol from the delivery chamber, samples of the polycarbonate membranes were prepared for analysis by scanning electron microscopy (SEM) (S-2500; Hitachi, Japan). For both the CA and CA/magnetite aerosols, three pieces were cut from the membrane, from locations chosen at random, and mounted to SEM stubs using two-sided carbon adhesive tabs. These samples were sputter coated with a thin layer of gold prior to SEM analysis. Images of the samples were taken at 3000× magnification, again from locations chosen at random, and stored digitally.
For three SEM images from each of the three membrane samples, the length and diameter of each particle was manually measured using digital image analysis software (Scion Image; Scion Corporation, Frederick, Md.). The particles were assumed to lie parallel to the face of the membrane. Particle sizing rules were similar to those established for asbestos samples by Platek et al. (1992). Each particle was marked immediately after being sized so as to avoid sizing the same particle twice. Where a particle was not perfectly straight, its length was measured as the arc length along its central axis from one tip to the other. Diameter was measured perpendicular to the central axis at the midpoint along a particle's length, except in rare cases where the particle had two regions of clearly different diameter. In these latter cases, an average of the two diameters was taken. Overlapping particles were sized separately only if both ends of each particle were clearly visible.
After sizing, the volume of each particle was calculated, under the approximation that the particles were cylindrical. Volume-weighted size distributions were then fit with lognormal curves by nonlinear regression to yield a volume median length (VML), volume median diameter (VMD), and geometric standard deviations in both length and diameter (σL and σD), respectively) for each SEM image. In addition, the particle number concentration in the sampled air was calculated for each image from the volume of sampled air, and the ratio between the image area and the total area of the membrane exposed to the aerosol. The mean values of these parameters for the three different membrane samples were compared by one-way ANOVA for independent samples in order to gauge their variation over different locations on the membrane.

Structure (SMILES): O=C(O)c1cc(=O)c2c(OCC(O)COc3cccc4oc(C(=O)O)cc(=O)c34)cccc2o1 [CA, cromoglycic acid]
- VMD (volume median diameter) (aerosol sampled from delivery chamber): 0.34 ± 0.02 μm
- N (number of particles per unit volume of sampled air): (2.0 ± 0.3) × 10^4 cm^−3
- VML (volume median length): 2.0 ± 0.4 μm
- σD (geometric standard deviation for diameter): 1.5 ± 0.1
- σL (geometric standard deviation for length): 2.1 ± 0.1
